Assay results as given in patent US20260242824A1, “ONCOLYTIC VIRUSES TO TREAT BRAIN CANCER” (priority 2023, published 2026).

How the values were obtained:
[1] = system: Tnfsf10 expression in astrocytes; assay: Tnfsf10 mRNA (qPCR) in stimulated primary mouse astrocytes; assay type: cell-based
Procedure: Isolation, culture, and stimulation of primary mouse astrocytes. Primary murine astrocytes were isolated from neonatal brains as previously described. Briefly, wild-type mouse pups aged 1-3 days were cryoanesthetized and decapitated. Whole brains were extracted, and 2-3 brains pooled per culture. After centrifugation for 5 min at 500×g, tissues were resuspended in 5 mL pre-warmed 0.25% Trypsin-EDTA (Thermo Fisher Scientific, 25200-072) and incubated at 37° C. for 10 min, followed by addition of culture medium to stop the dissociation reaction, and mechanical disaggregation by strong pipetting. The suspension was then filtered through a 70 μm nylon strainer and centrifuged 5 min at 500×g. Finally, the suspension was seeded onto T75 flasks (Falcon, 353136) that were coated at room temperature for 10 min with poly-L-lysine (Sigma-Aldrich, P4707). Mixed glial cultures were grown for at least 10 days prior to enrichment of astrocytes per the following method. […]
For quantitative analysis of gene transcription from cultured cells cellular RNA was extracted by use of RNeasy Kit (Qiagen, 74004). […] Quantitative measurement of gene expression was performed by qPCR using Taqman Fast Universal PCR Master Mix (Life Technologies, 4367846), MicroAmp Optical 384 well plates (Thermo Fisher Scientific, 43-098-49) and a ViiA 7 Real-Time PCR System (Applied Biosciences). […]

STAT3 = conditions: 2 μM in dimethyl sulfoxide; reported in ref [40]; cited from earlier work

O=C(Nc1ccc([N+](=O)[O-])cc1Cl)c1cc(Cl)ccc1O [BAY2353, Niclosamide]
TCM-induced expression of Tnfsf10 transcripts upon STAT inhibition ([1]; GL261 TCM-stimulated astrocytes, inhibitor 2 μM, vs vehicle): fully abrogated
effectiveness and cytotoxicity at the concentration used (STAT3): effective but not cytotoxic

B1: Recombinant murine IL-11: recombinant murine IL-11 used to stimulate astrocytes at 50 ng/ml (protein, UniProt P47873 22-199, looked up)
Interleukin-11: PGPPAGSPRVSSDPRADLDSAVLLTRSLLADTRQLAAQMRDKFPADGDHSLDSLPTLAMSAGTLGSLQLPGVLTRLRVDLMSYLRHVQWLRRAGGPSLKTLEPELGALQARLERLLRRLQLLMSRLALPQAAPDQPVIPLGPPASAWGSIRAAHAILGGLHLTLDWAVRGLLLLKTRL
Tnfsf10 expression upon recombinant murine IL-11 alone ([1]; astrocytes, 50 ng/ml, levels comparable to GL261 TCM, vs control medium): sufficient to induce Tnfsf10 expression
